# Laboratory results published in patent US20090048287A1, “Compositions useful for treating gastrointestinal motility disorders” (priority 2003, published 2009).
# What was measured:
# Format in all cases: in vivo, cat
# feline model of GERD [1] = experiment: Esophageal motility: peristaltic contraction amplitude after spontaneous dry swallows and balloon distension in cats
# Description: (§1) Experiments to determine the effects of MKC-733, omeprazole or the combination of MKC-733 and omeprazole on LESP, lower esophageal pH, esophageal motility and TLESR, in a feline model of GERD were conducted.
# Each animal was fitted with a water-perfused sleeve catheter (Andorfer Inc, Greendale, Wis.) attached via pressure transducers to a minimally compliant hydrolytic pump. The sleeve was positioned within the LES with the tip placed into the stomach. The total distance between recording site 0 (tip in the stomach) and recording site 2 was 4 cm. This 4 cm region was referred to as site 1 and the pressure was simultaneously recorded along this region. […] Throughout the experiment, the output from the pressure transducers was manometrically recorded using the PowerLab Chart 5 data acquisition program (ADInstruments, Colorado Springs, Colo.) on a computer using a Windows XP operating system.
# The manometric pressure recordings at sites 1-5 of the sleeve catheter were recorded during primary peristalsis induced by three spontaneous dry swallows (SDS) and secondary peristalsis induced by 3 balloon distensions (BD; distension of a balloon catheter 2 cm in diameter for 5 second placed in the mid portion of the esophagus).
# Esophageal motility was characterized based on the amplitude of the contractions recorded at sites 2-5 of the catheter in response to three SDS and three BD. […]
# feline model of GERD [2] = experiment: Lower esophageal pH monitoring during gastroesophageal reflux in sedated cats; conditions: naive, MKC-733 1.0 and 10 mg/kg i.v.
# Description: as §1
# An Orion II pH probe (Medical Measurements Systems), running along with the manometric catheter, was positioned with one pH measuring site in the stomach and a second pH measuring site in the distal esophagus. pH was monitored and recorded simultaneously with the manometric recordings using a computerized data acquisition system (Medical Measurements Systems).
# The pH in the lower esophagus was monitored at the same time as the manometric pressure. The pH was recorded for each measurement regimen set forth in Experiments 1 and 2.
# All animals were acclimated to the facility for one week prior to testing. […]
# (§2) Following instrumentation, baseline values of LESP, esophageal pH, esophageal peristalsis and TLESR were measured as described above. […]
# Data is presented as mean±SEM. […] Significance of LESP treatment effects within and between experiments was evaluated using 2-Way repeated measures ANOVA. […] Significance of treatment effects for pH was evaluated using a nonparametric one-way repeated measures ANOVA (Friedman Test). […]
# In 2 of the 5 animals, the 10 mg/kg dose was not administered. In 1 of the 3 remaining animals, pH was also not recorded following the […] dose.
# feline model of GERD [3] = experiment: Lower esophageal sphincter pressure (LESP), manometric recording in sedated cats; conditions: MKC-733 1.0 and 10 mg/kg i.v., naive and omeprazole pretreated, FIG. 2
# Description: as §1
# The cats used in the experiments were fasted overnight and sedated with ketamine (15-20 mg/kg intramuscular injection). A butterfly catheter filled with heparinized sterile saline was placed into the brachial vein and used for supplemental ketamine anesthesia and drug administration.
# Each animal was fitted with a water-perfused sleeve catheter (Andorfer Inc, Greendale, Wis.) attached via pressure transducers to a minimally compliant hydrolytic pump. […] This 4 cm region was referred to as site 1 and the pressure was simultaneously recorded along this region. […] Throughout the experiment, the output from the pressure transducers was manometrically recorded using the PowerLab Chart 5 data acquisition program (ADInstruments, Colorado Springs, Colo.) on a computer using a Windows XP operating system.
# The manometric pressure recording at site 1 of the catheter provided the baseline (at rest) LESP for each animal. The baseline LESP was recorded for each measurement regimen set forth in Experiments 1 and 2 below, and then compared. […]
# as §2
smiles,measurement,setting,value
"O=C(N[C@H]1CN2CCC1CC2)c1c[nH]c2ccsc2c1=O [MKC-733, (R)—N-1-azabicyclo[2.2.2]oct-3-yl-4,7-dihydro-7-oxothieno[3,2-b]pyridine-6-carboxamide]",oral-to-aboral peristaltic contraction amplitude,"feline model of GERD [1]; MKC-733 1.0 and 10 mg/kg i.v., normalized to vehicle, FIG. 5",dose-dependent significant enhancement
same,difference in effect on peristaltic contraction amplitude between naive cats and those pretreated with omeprazole,"feline model of GERD [1]; MKC-733 i.v., data not shown",no significant differences
same,percentage of time during gastroesophageal (GER) episodes when lower esophageal pH was greater than 4.0,feline model of GERD [2]; FIG. 3,positive trend that appeared dose-dependent
same,nadir pH values during GER,feline model of GERD [2]; FIG. 4,did not effect nadir pH values
same,LESP normalized to vehicle controls within experiments,feline model of GERD [3],statistically significant dose-dependent increase in LESP
